The values below come from patent publication US20230077362A1 (CORTEVA AGRISCIENCE LLC, priority 2019, published 2023).

Test [1] has as its system Beet Armyworm (Spodoptera exigua) ("BAW"), second instar larvae. The test can be described thus: Bioassay on beet armyworm (BAW), 128-well diet tray assay. To be noted: for pest or weed control at 50 µg/cm2: Spodoptera exigua, read-out: BAW rating; for BAW rating: Table ABC, species BAW, C = not tested, D = no activity noticed. It counts as in vivo. The gist of the method:
(§1)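 Second-instar larvae on diet in 128-well trays, covered and held at 25° C, 14:10 light-dark, for five to seven days. Percent mortality scored per well and averaged over eight wells; activity reported as a rating category.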

Test [2] relates to Cabbage Looper (Trichoplusia ni) ("CL"), second instar larvae. The test can be described thus: Bioassay on cabbage looper (CL), 128-well diet tray assay. It counts as in vivo. To be noted: for pest or weed control at 50 µg/cm2: Trichoplusia ni, read-out: CL rating; for CL rating: Table ABC, species CL, C = not tested, D = no activity noticed. The gist of the method: as §1

As for `CC(=O)c1cc(-c2ncn(-c3ccc(OC(F)(F)F)cc3)n2)ccc1NC(=O)/N=C1\SCC(=O)N1c1cc(N(C)C)ccc1C(C)C` [Compound J396, (Z)-1-(2-Acetyl-4-(1-(4-(trifluoromethoxy)phenyl)-1H-1,2,4-triazol-3-yl)phenyl)-3-(3-(5-(dimethylamino)-2-isopropylphenyl)-4-oxothiazolidin-2-ylidene)urea], the pest or weed control at 50 µg/cm2 in test [1] and in test [2] was 50 to 100% each time.

As for `COC(C)c1ccc(C)cc1N1C(=O)CS/C1=N\C(=O)Nc1ccc(-c2ncn(-c3ccc(OC(F)(F)F)cc3)n2)cc1C(C)=O` (stereo not shown) [Compound J397, (Z)-1-(2-Acetyl-4-(1-(4-(trifluoromethoxy)phenyl)-1H-1,2,4-triazol-3-yl)phenyl)-3-(3-(2-(1-methoxyethyl)-5-methylphenyl)-4-oxothiazolidin-2-ylidene)urea], the pest or weed control at 50 µg/cm2 in test [1] and in test [2] was 50 to 100% in each case.

On to `CC(=O)c1cc(-c2ncn(-c3ccc(OC(F)(F)F)cc3)n2)ccc1NC(=O)/N=C1\SCC(=O)N1c1cc(C)ccc1COCC(F)(F)F` [Compound J398, (Z)-1-(2-Acetyl-4-(1-(4-(trifluoromethoxy)phenyl)-1H-1,2,4-triazol-3-yl)phenyl)-3-(3-(5-methyl-2-((2,2,2-trifluoroethoxy)methyl)phenyl)-4-oxothiazolidin-2-ylidene)urea], for which the pest or weed control at 50 µg/cm2 in test [1] and in test [2] was 50 to 100% each time.

On to `CC(=O)c1cc(-c2ncn(-c3ccc(OC(F)(F)F)cc3)n2)ccc1NC(=O)/N=C1\SCC(=O)N1c1cc(C)ccc1OCCC(F)(F)F` [Compound J399, (Z)-1-(2-Acetyl-4-(1-(4-(trifluoromethoxy)phenyl)-1H-1,2,4-triazol-3-yl)phenyl)-3-(3-(5-methyl-2-(3,3,3-trifluoropropoxy)phenyl)-4-oxothiazolidin-2-ylidene)urea], for which the pest or weed control at 50 µg/cm2 in test [1] and in test [2] was 50 to 100% each time.

`Cc1ccc(COCC(F)F)c(N2C(=O)CS/C2=N\C(=O)Nc2ccc(-c3ncn(-c4ccc(C(F)(F)F)cn4)n3)cc2F)c1` [Compound J400]: the BAW rating result in test [1] was “A (50-100)”. For the same compound, the CL rating result in test [2] is listed as “A (50-100)”.

For the compound `Cc1ccc(COCC(F)F)c(N2C(=O)CS/C2=N\C(=O)Nc2ccc(-c3ncn(-c4ccc(OC(F)(F)F)cc4)n3)cc2F)c1` [Compound J401], the pest or weed control at 50 µg/cm2 in test [1] and in test [2] was 50 to 100% each time.

Take `Cc1ccc(OCCC(F)(F)F)c(N2C(=O)CS/C2=N\C(=O)Nc2ccc(-c3ncn(-c4ccc(S(=O)(=O)C(F)(F)F)cc4)n3)cc2C#N)c1` [Compound J402, (Z)-1-(2-cyano-4-(1-(4-((trifluoromethyl)sulfonyl)phenyl)-1H-1,2,4-triazol-3-yl)phenyl)-3-(3-(5-methyl-2-(3,3,3-trifluoropropoxy)phenyl)-4-oxothiazolidin-2-ylidene)urea]: the pest or weed control at 50 µg/cm2 in test [1] and in test [2] was 50 to 100% throughout.

Turning to `Cc1ccc(COCC(F)(F)F)c(N2C(=O)CS/C2=N\C(=O)Nc2ccc(-n3cnc(-c4ccc(OC(F)(F)F)cc4)n3)cc2)c1` [Compound J403, (Z)-1-(3-(5-Methyl-2-((2,2,2-trifluoroethoxy)methyl)phenyl)-4-oxothiazolidin-2-ylidene)-3-(4-(3-(4-(trifluoromethoxy)phenyl)-1H-1,2,4-triazol-1-yl)phenyl)urea], the pest or weed control at 50 µg/cm2 in test [1] and in test [2] was 50 to 100% each time.

With `Cc1ccc(OCCC(F)(F)F)c(N2C(=O)CS/C2=N\C(=O)Nc2ccc(-n3cnc(-c4ccc(OC(F)(F)F)cc4)n3)cc2)c1` [Compound J404, (Z)-1-(3-(5-Methyl-2-(3,3,3-trifluoropropoxy)phenyl)-4-oxothiazolidin-2-ylidene)-3-(4-(3-(4-(trifluoromethoxy)phenyl)-1H-1,2,4-triazol-1-yl)phenyl)urea], the pest or weed control at 50 µg/cm2 in test [1] and in test [2] was 50 to 100% throughout.

Turning to `COC(c1ccc(C)cc1N1C(=O)CS/C1=N\C(=O)Nc1ccc(-n2cnc(-c3ccc(OC(F)(F)F)cc3)n2)cc1)C(F)(F)F` (stereo not shown) [Compound J405, (Z)-1-(3-(5-Methyl-2-(2,2,2-trifluoro-1-methoxyethyl)phenyl)-4-oxothiazolidin-2-ylidene)-3-(4-(3-(4-(trifluoromethoxy)phenyl)-1H-1,2,4-triazol-1-yl)phenyl)urea], the pest or weed control at 50 µg/cm2 in test [1] and in test [2] was 50 to 100% each time.

For the compound `N#Cc1ccc(OCCC(F)(F)F)c(N2C(=O)CS/C2=N\C(=O)Nc2ccc(-n3cnc(-c4ccc(OC(F)(F)F)cc4)n3)cc2)c1` [Compound J406, (Z)-1-(3-(5-Cyano-2-(3,3,3-trifluoropropoxy)phenyl)-4-oxothiazolidin-2-ylidene)-3-(4-(3-(4-(trifluoromethoxy)phenyl)-1H-1,2,4-triazol-1-yl)phenyl)urea], the pest or weed control at 50 µg/cm2 in test [1] and in test [2] was 50 to 100% in each case.

Turning to `CC(C)c1ccc(C#N)cc1N1C(=O)CS/C1=N\C(=O)Nc1ccc(-n2cnc(-c3ccc(OC(F)(F)F)cc3)n2)cc1` [Compound J407, (Z)-1-(3-(5-Cyano-2-isopropylphenyl)-4-oxothiazolidin-2-ylidene)-3-(4-(3-(4-(trifluoromethoxy)phenyl)-1H-1,2,4-triazol-1-yl)phenyl)urea], the pest or weed control at 50 µg/cm2 in test [1] and in test [2] was 50 to 100% in each case.

Consider `CC(C)c1ccc(N(C)C)cc1N1C(=O)CS/C1=N\C(=O)Nc1ccc(-n2cnc(-c3ccc(OC(F)(F)F)cc3)n2)cc1` [Compound J408, (Z)-1-(3-(5-(Dimethylamino)-2-isopropylphenyl)-4-oxothiazolidin-2-ylidene)-3-(4-(3-(4-(trifluoromethoxy)phenyl)-1H-1,2,4-triazol-1-yl)phenyl)urea], for which the pest or weed control at 50 µg/cm2 in test [1] and in test [2] was 50 to 100% each time.

Take `CCCc1ccc(N(C)C)cc1N1C(=O)CS/C1=N\C(=O)Nc1ccc(-n2cnc(-c3ccc(OC(F)(F)F)cc3)n2)cc1` [Compound J409, (Z)-1-(3-(5-(Dimethylamino)-2-propylphenyl)-4-oxothiazolidin-2-ylidene)-3-(4-(3-(4-(trifluoromethoxy)phenyl)-1H-1,2,4-triazol-1-yl)phenyl)urea]: the pest or weed control at 50 µg/cm2 in test [1] and in test [2] was 50 to 100% in each case.

Consider `CC(C)c1cc(F)c(N(C)C)cc1N1C(=O)CS/C1=N\C(=O)Nc1ccc(-n2cnc(-c3ccc(OC(F)(F)F)cc3)n2)cc1` [Compound J410, (Z)-1-(3-(5-(Dimethylamino)-4-fluoro-2-isopropylphenyl)-4-oxothiazolidin-2-ylidene)-3-(4-(3-(4-(trifluoromethoxy)phenyl)-1H-1,2,4-triazol-1-yl)phenyl)urea], for which the pest or weed control at 50 µg/cm2 in test [1] and in test [2] was 50 to 100% in each case.

In the case of `CC(C)c1ccc(C#N)cc1N1C(=O)CS/C1=N\C(=O)Nc1ccc(-c2ncn(-c3ccc(S(=O)(=O)C(F)(F)F)cc3)n2)cc1C#N` [Compound J413, (Z)-1-(3-(5-Cyano-2-isopropylphenyl)-4-oxothiazolidin-2-ylidene)-3-(2-cyano-4-(1-(4-((trifluoromethyl)sulfonyl)phenyl)-1H-1,2,4-triazol-3-yl)phenyl)urea], the pest or weed control at 50 µg/cm2 in test [1] and in test [2] was 50 to 100% in each case.

In the case of `CC(C)c1ccc(N(C)C)cc1N1C(=O)CS/C1=N\C(=O)Nc1ccc(-c2ncn(-c3ccc(S(=O)(=O)C(F)(F)F)cc3)n2)cc1C#N` [Compound J414, (Z)-1-(2-Cyano-4-(1-(4-((trifluoromethyl)sulfonyl)phenyl)-1H-1,2,4-triazol-3-yl)phenyl)-3-(3-(5-(dimethylamino)-2-isopropylphenyl)-4-oxothiazolidin-2-ylidene)urea], the pest or weed control at 50 µg/cm2 in test [1] and in test [2] was 50 to 100% throughout.

Consider `Cc1ccc(COCC(F)F)c(N2C(=O)CS/C2=N\C(=O)Nc2ccc(-c3ncn(-c4ccc(OC(F)(F)F)cc4)n3)cc2C)c1` [Compound J420], for which, in test [1], the BAW rating result was “A (50-100)”. Moreover, in test [2], the CL rating entry is reported as “A (50-100)”.

As for `CCC(OC)c1ccc(C)cc1N1C(=O)CS/C1=N\C(=O)Nc1ccc(-c2ncn(-c3ccc(OC(F)(F)F)cc3)n2)cc1F` (stereo not shown) [Compound J421], the pest or weed control at 50 µg/cm2 in test [1] and in test [2] was 50 to 100% throughout.

With `Cc1ccc(COCC(F)(F)F)c(N2C(=O)CS/C2=N\C(=O)Nc2ccc(-c3ncn(-c4ccc(S(F)(F)(F)(F)F)cc4)n3)cc2F)c1` [Compound J422], in test [1], the BAW rating entry is given as “A (50-100)”. In addition, the CL rating entry in test [2] is “A (50-100)”.

As to `COC(C)c1ccc(C)cc1N1C(=O)CS/C1=N\C(=O)Nc1ccc(-c2ncn(-c3ccc(S(F)(F)(F)(F)F)cc3)n2)cc1F` (stereo not shown) [Compound J423], in test [1], the BAW rating result is on record as “A (50-100)”. Besides, in test [2], the CL rating result is “A (50-100)”.

With `Cc1ccc(COCC(F)(F)F)c(N2C(=O)CS/C2=N\C(=O)Nc2ccc(-c3ncn(-c4ccc(CC#N)cc4)n3)cc2F)c1` [Compound J425, (Z)-1-(4-(1-(4-(Cyanomethyl)phenyl)-1H-1,2,4-triazol-3-yl)-2-fluorophenyl)-3-(3-(5-methyl-2-((2,2,2-trifluoroethoxy)methyl)phenyl)-4-oxothiazolidin-2-ylidene)urea], the pest or weed control at 50 µg/cm2 in test [1] and in test [2] was 50 to 100% throughout.

As for `COC(C)c1ccc(C)cc1N1C(=O)CS/C1=N\C(=O)Nc1ccc(-c2noc(-c3ccc(OC(F)(F)F)cc3)n2)cc1F` (stereo not shown) [Compound J426, (Z)-1-(2-Fluoro-4-(5-(4-(trifluoromethoxy)phenyl)-1,2,4-oxadiazol-3-yl)phenyl)-3-(3-(2-(1-methoxyethyl)-5-methylphenyl)-4-oxothiazolidin-2-ylidene)urea], the pest or weed control at 50 µg/cm2 in test [1] and in test [2] was 50 to 100% each time.
